PubChem BioAssay AID1963862 (Molecular Pharmacology Branch, DTP, NCI, 2024)

Tested on: KRAS patient-derived spheroids with HUVEC/MSC, viability
Assay: Anticancer human tumor 941728-121-R-J1-PDC patient-derived lung adenocarcinoma cell line growth inhibition [KRAS2]
Conditions: for IC50: curve of first compound; for viability, T/C: stronger effect = lower value; active = viability on the fitted dose curve at most 10% of control; inactive = the rest
Outline: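 Combination screen of spheroid viability in tumor-cell co-cultures with endothelial (HUVEC) and mesenchymal stem cell stroma. Each agent was tested in half-log dilutions, topping at clinical Cmax or at 10 microM without a known Cmax.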

[1] = second compound 0.1 µM, first compound 0.00316 µM
[2] = second compound 0.1 µM, first compound 0.01 µM
[3] = second compound 0.1 µM, first compound 0.0316 µM
[4] = second compound 0.1 µM, first compound 0.1 µM
[5] = second compound 0.316 µM, first compound 0.00316 µM
[6] = second compound 0.316 µM, first compound 0.01 µM
[7] = second compound 0.316 µM, first compound 0.0316 µM
[8] = second compound 0.316 µM, first compound 0.1 µM
[9] = second compound 1 µM, first compound 0.00316 µM
[10] = second compound 1 µM, first compound 0.01 µM
[11] = second compound 1 µM, first compound 0.0316 µM
[12] = second compound 1 µM, first compound 0.1 µM
[13] = second compound 3.16 µM, first compound 0.00316 µM
[14] = second compound 3.16 µM, first compound 0.01 µM
[15] = second compound 3.16 µM, first compound 0.0316 µM
[16] = second compound 3.16 µM, first compound 0.1 µM
[17] = second compound 10 µM, first compound 0.00316 µM
[18] = second compound 10 µM, first compound 0.01 µM
[19] = second compound 10 µM, first compound 0.0316 µM
[20] = second compound 10 µM, first compound 0.1 µM
[21] = second compound 0.0316 µM, first compound 0.0316 µM
[22] = second compound 0.0316 µM, first compound 0.1 µM
[23] = second compound 0.0316 µM, first compound 0.316 µM
[24] = second compound 0.0316 µM, first compound 1 µM
[25] = second compound 0.0316 µM, first compound 3.16 µM
[26] = second compound 0.0316 µM, first compound 10 µM
[27] = second compound 0.1 µM, first compound 0.316 µM
[28] = second compound 0.1 µM, first compound 1 µM
[29] = second compound 0.1 µM, first compound 3.16 µM
[30] = second compound 0.1 µM, first compound 10 µM
[31] = second compound 0.316 µM, first compound 0.316 µM
[32] = second compound 0.316 µM, first compound 1 µM
[33] = second compound 0.316 µM, first compound 3.16 µM
[34] = second compound 0.316 µM, first compound 10 µM
[35] = second compound 1 µM, first compound 0.316 µM
[36] = second compound 1 µM, first compound 1 µM
[37] = second compound 1 µM, first compound 3.16 µM
[38] = second compound 1 µM, first compound 10 µM
[39] = second compound 3.16 µM, first compound 0.316 µM
[40] = second compound 3.16 µM, first compound 1 µM
[41] = second compound 3.16 µM, first compound 3.16 µM
[42] = second compound 3.16 µM, first compound 10 µM
[43] = second compound 10 µM, first compound 0.316 µM
[44] = second compound 10 µM, first compound 1 µM
[45] = second compound 10 µM, first compound 3.16 µM
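Note: spheroids exposed to agents for seven days before readout.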

CN(C)C/C=C/C(=O)Nc1cc2c(Nc3ccc(F)c(Cl)c3)ncnc2cc1O[C@H]1CCOC1 + CNCc1ccccc1-c1csc(C(C)Nc2nc(C)nc3cc(OC)c(OC)cc23)c1
inactive: viability, T/C (second compound 0.1 µM, first compound 0.000316 µM) 44% | viability, T/C (second compound 0.1 µM, first compound 0.001 µM) 45.9% | viability, T/C [1] 36.2% | viability, T/C [2] 34.6% | viability, T/C [3] 31.6% | viability, T/C [4] 35.6% | viability, T/C (second compound 0.316 µM, first compound 0.000316 µM) 32.6% | viability, T/C (second compound 0.316 µM, first compound 0.001 µM) 24.5% | viability, T/C [5] 28.5% | viability, T/C [6] 23.8% | viability, T/C [7] 25.6% | viability, T/C [8] 29.9% | viability, T/C (second compound 1 µM, first compound 0.000316 µM) 20.5% | viability, T/C (second compound 1 µM, first compound 0.001 µM) 19.6% | viability, T/C [9] 18.5% | viability, T/C [10] 19.6% | viability, T/C [11] 20.6% | viability, T/C [12] 19.4%
active: viability, T/C (second compound 3.16 µM, first compound 0.000316 µM) 0.61% | viability, T/C (second compound 3.16 µM, first compound 0.001 µM) 0.24% | viability, T/C [13] 0.15% | viability, T/C [14] 0.14% | viability, T/C [15] 0.13% | viability, T/C [16] 0.18% | viability, T/C (second compound 10 µM, first compound 0.000316 µM) 0.05% | viability, T/C (second compound 10 µM, first compound 0.001 µM) 0.04% | viability, T/C [17] 0.04% | viability, T/C [18] 0.08% | viability, T/C [19] 0.04% | viability, T/C [20] 0.32%
< 0.316 nM: IC50 (second compound 0.1 µM) | IC50 (second compound 0.316 µM) | IC50 (second compound 1 µM) | IC50 (second compound 3.16 µM) | IC50 (second compound 10 µM)

CC(C)NCC(C(=O)N1CCN(c2ncnc3c2C(C)CC3O)CC1)c1ccc(Cl)cc1 (stereo not given) + C=CC(=O)N1CCN(c2nc(OCC3CCCN3C)nc3c2CCN(c2cccc4cccc(C)c24)C3)CC1CC#N
inactive: viability, T/C [21] 29.1% | viability, T/C [22] 29.5% | viability, T/C [23] 23.4% | viability, T/C [24] 23.5% | viability, T/C [25] 18% | viability, T/C [26] 7.87% | viability, T/C [3] 27.3% | viability, T/C [4] 30% | viability, T/C [27] 22.8% | viability, T/C [28] 19.5% | viability, T/C [29] 14.5% | viability, T/C [7] 26.8% | viability, T/C [8] 26.6% | viability, T/C [31] 26.5% | viability, T/C [32] 18.9% | viability, T/C [33] 15.7% | viability, T/C [34] 8.89% | viability, T/C [11] 27.4% | viability, T/C [12] 24.1% | viability, T/C [35] 18.9% | viability, T/C [36] 15% | viability, T/C [37] 12.5%
active: viability, T/C [30] 7.59% | viability, T/C [38] 4.68% | viability, T/C [15] 0.13% | viability, T/C [16] 0.12% | viability, T/C [39] 0.12% | viability, T/C [40] 0.15% | viability, T/C [41] 0.18% | viability, T/C [42] 0.25%
< 31.6 nM: IC50 (second compound 0.0316 µM) | IC50 (second compound 0.1 µM) | IC50 (second compound 0.316 µM) | IC50 (second compound 1 µM) | IC50 (second compound 3.16 µM)

Cn1nccc1Nc1nccc(-c2cc3c(s2)C(C)(C)N(CCN2CCOCC2)C3=O)n1 + C=CC(=O)N1CCN(c2nc(OCC3CCCN3C)nc3c2CCN(c2cccc4cccc(C)c24)C3)CC1CC#N
< 31.6 nM: IC50 (second compound 0.0316 µM) | IC50 (second compound 0.1 µM) | IC50 (second compound 0.316 µM) | IC50 (second compound 1 µM) | IC50 (second compound 3.16 µM)
inactive: viability, T/C [21] 29.5% | viability, T/C [22] 28.2% | viability, T/C [23] 25.1% | viability, T/C [24] 19.9% | viability, T/C [25] 22.3% | viability, T/C [26] 29.2% | viability, T/C [3] 26.6% | viability, T/C [4] 24.5% | viability, T/C [27] 22.1% | viability, T/C [28] 18.8% | viability, T/C [29] 20.7% | viability, T/C [30] 28.4% | viability, T/C [7] 26.1% | viability, T/C [8] 24.2% | viability, T/C [31] 21.4% | viability, T/C [32] 21.9% | viability, T/C [33] 19.1% | viability, T/C [34] 29.2% | viability, T/C [11] 27.1% | viability, T/C [12] 26.8% | viability, T/C [35] 23% | viability, T/C [36] 29.2% | viability, T/C [37] 22.2% | viability, T/C [38] 34.1%
active: viability, T/C [15] 1.07% | viability, T/C [16] 0.7% | viability, T/C [39] 1.22% | viability, T/C [40] 1.67% | viability, T/C [41] 0.97% | viability, T/C [42] 0.27%

CCNC(=O)CC1N=C(c2ccc(Cl)cc2)c2cc(OC)ccc2-n2c(C)nnc21 (stereo not given) + COc1cc2nc(C)nc(NC(C)c3cc(N)cc(C(F)(F)F)c3)c2cc1OC1CCOC1
36.2 nM: IC50 (second compound 0.1 µM)
< 31.6 nM: IC50 (second compound 0.316 µM) | IC50 (second compound 1 µM) | IC50 (second compound 3.16 µM) | IC50 (second compound 10 µM)
inactive: viability, T/C [3] 49.5% | viability, T/C [4] 48.2% | viability, T/C [27] 30.6% | viability, T/C [28] 16.1% | viability, T/C [29] 11.1% | viability, T/C [30] 9.43% | viability, T/C [7] 46.2% | viability, T/C [8] 42.6% | viability, T/C [31] 34.4% | viability, T/C [32] 12.6% | viability, T/C [11] 45.1% | viability, T/C [12] 40.7% | viability, T/C [35] 29.2% | viability, T/C [36] 8.81% | viability, T/C [15] 38.3% | viability, T/C [16] 33% | viability, T/C [39] 23.5% | viability, T/C [40] 8.14% | viability, T/C [19] 20.3% | viability, T/C [20] 13.9% | viability, T/C [43] 14.2%
active: viability, T/C [33] 9.51% | viability, T/C [34] 9.32% | viability, T/C [37] 7.25% | viability, T/C [38] 6.02% | viability, T/C [41] 7.37% | viability, T/C [42] 8.71% | viability, T/C [44] 3.3% | viability, T/C [45] 2.65% | viability, T/C (second compound 10 µM, first compound 10 µM) 1.91%

CC1COCCN1c1cc(-c2ccnn2C)c2ccnc(-c3ccn[nH]3)c2n1 (stereo not given) + CNCc1ccccc1-c1csc(C(C)Nc2nc(C)nc3cc(OC)c(OC)cc23)c1
< 10 nM: IC50 (second compound 0.316 µM) | IC50 (second compound 1 µM) | IC50 (second compound 3.16 µM) | IC50 (second compound 10 µM)
inactive: viability, T/C [2] 63.1% | viability, T/C [3] 43.3% | viability, T/C [4] 39.4% | viability, T/C [27] 31.7% | viability, T/C [28] 28.2% | viability, T/C [29] 26.8% | viability, T/C [6] 41.5% | viability, T/C [7] 37.1% | viability, T/C [8] 29% | viability, T/C [31] 22.8% | viability, T/C [32] 22.9% | viability, T/C [33] 22.6% | viability, T/C [10] 24.9% | viability, T/C [11] 29.4% | viability, T/C [12] 18.8% | viability, T/C [35] 19% | viability, T/C [36] 14% | viability, T/C [37] 11.4%
active: viability, T/C [14] 1.36% | viability, T/C [15] 1.18% | viability, T/C [16] 1.37% | viability, T/C [39] 0.47% | viability, T/C [40] 0.45% | viability, T/C [41] 0.62% | viability, T/C [18] 0.73% | viability, T/C [19] 0.11% | viability, T/C [20] 0.25% | viability, T/C [43] 0.12% | viability, T/C [44] 0.14% | viability, T/C [45] 0.17%
23.7 nM: IC50 (second compound 0.1 µM)

CCN1CCN(Cc2ccc(Nc3ncc(F)c(-c4cc(F)c5nc(C)n(C(C)C)c5c4)n3)nc2)CC1 + CC1OCC2(CCN(c3cnc(Sc4ccnc(N)c4Cl)c(N)n3)CC2)C1N
inactive: viability, T/C [1] 47.5% | viability, T/C [2] 40.5% | viability, T/C [3] 36.2% | viability, T/C [4] 35.9% | viability, T/C [27] 37.5% | viability, T/C [28] 44.4% | viability, T/C [5] 35.3% | viability, T/C [6] 31.2% | viability, T/C [7] 30.5% | viability, T/C [8] 31.7% | viability, T/C [31] 24.3% | viability, T/C [32] 26% | viability, T/C [9] 32.5% | viability, T/C [10] 29.4% | viability, T/C [11] 29.1% | viability, T/C [12] 28.5% | viability, T/C [35] 23.1% | viability, T/C [36] 17.5% | viability, T/C [13] 25.8% | viability, T/C [14] 25.4% | viability, T/C [15] 24.2% | viability, T/C [16] 24.4% | viability, T/C [39] 16.5% | viability, T/C [40] 13.5% | viability, T/C [17] 22.9% | viability, T/C [18] 22.7% | viability, T/C [19] 19.6% | viability, T/C [20] 15.6% | viability, T/C [43] 9.09%
active: viability, T/C [44] 9.79%
< 3.16 nM: IC50 (second compound 0.1 µM) | IC50 (second compound 0.316 µM) | IC50 (second compound 1 µM) | IC50 (second compound 3.16 µM) | IC50 (second compound 10 µM)
